# From ChEMBL document CHEMBL1122602, “2-Acetylpyridine thiosemicarbazones. 8. Derivatives of 1-acetylisoquinoline as potential antimalarial agents” (1984)
# Key:
# Format in all cases: functional
# Mus musculus [1] = experiment: Antimalarial activity was assessed against Plasmodium berghei in mice (Mus musculus) at 160 mg/kg dosage of the compound; Cure
# Mus musculus [2] = experiment: Antimalarial activity was assessed against Plasmodium berghei in mice (Mus musculus) at 320 mg/kg dosage of the compound; Cure
# Mus musculus [3] = experiment: Increase in mean survival time in mice inoculated with Plasmodium berghei days was reported following 40 mg/kg.
# Mus musculus [4] = experiment: Antimalarial activity was assessed against Plasmodium berghei in mice (Mus musculus). Increase in mean survival time in days was reported, at 80 mg/kg dosage of the compound.
# Mus musculus [5] = experiment: Antimalarial activity was assessed against Plasmodium berghei in mice (Mus musculus). Increase in mean survival time in days was reported at 160 mg/kg dosage of the compound.
# Mus musculus [6] = experiment: Antimalarial activity was assessed against Plasmodium berghei in mice (Mus musculus). Increase in mean survival time in days was reported at 640 mg/kg dosage of the compound.
# Mus musculus [7] = experiment: Antimalarial activity was assessed against Plasmodium berghei in mice (Mus musculus) at 640 mg/kg dosage of the compound; Cure
# Mus musculus [8] = experiment: Antimalarial activity was assessed against Plasmodium berghei in mice (Mus musculus) at 80 mg/kg dosage of the compound; Cure
# Mus musculus [9] = experiment: Antimalarial activity was assessed against Plasmodium berghei in mice (Mus musculus) at 40 mg/kg dosage of the compound; Cure
# Mus musculus [10] = experiment: Antimalarial mice (Mus musculus) at 320 mg/kg dosage of the compound; Cure
# Mus musculus [11] = experiment: Antimalarial activity was assessed against Plasmodium berghei in mice (Mus musculus). Increase in mean survival time in days was reported at 320 mg/kg dosage of the compound.
Structure (SMILES),No. of cures (Mus musculus [1]),No. of cures (Mus musculus [2]),Increase in mean survival time (Mus musculus [3]),Increase in mean survival time (Mus musculus [4]),Mean survival time (Mus musculus [5]),Mean survival time (Mus musculus [6]),No. of cures (Mus musculus [7]),No. of cures (Mus musculus [8]),No. of cures (Mus musculus [9]),No. of cures (Mus musculus [10]),Mean survival time (Mus musculus [11])
C/C(=N\N=C(/S)N1CCCC1)c1nccc2ccccc12,2 count,2 count,3.5 days,2 days,–,–,–,–,–,–,–
C/C(=N\N=C(/S)NCc1ccccc1)c1nccc2ccccc12,–,–,0.1 days,–,0.9 days,0.5 days,–,–,–,–,–
CC(N/N=C(\S)N(C)C1CCCCC1)c1nccc2ccccc12 (stereo not given),2 count,1 count,–,–,–,–,1,3 count,2 count,–,–
CC(N/N=C(\S)N1CCCC1)c1nccc2ccccc12 (stereo not given),3 count,3 count,5.1 days,7.1 days,–,–,1,–,–,–,–
CC(N/N=C(\S)NCc1ccccc1)c1nccc2ccccc12 (stereo not given),–,–,0.3 days,–,0.9 days,0.1 days,–,–,–,–,–
C/C(=N\N=C(/S)N(C)C)c1nccc2ccccc12,–,–,7.3 days,–,9.2 days,–,–,1,–,–,–
C/C(=N\N=C(/S)N1CCCCCC1)c1nccc2ccccc12,1 count,2 count,7.8 days,6.9 days,–,–,1,–,–,–,–
CC1CCN(/C(S)=N/NC(C)c2nccc3ccccc23)CC1 (stereo not given),3 count,–,7.6 days,8.9 days,–,–,–,–,–,–,–
CC(N/N=C(\S)N1CCCCCC1)c1nccc2ccccc12 (stereo not given),3 count,–,5.1 days,7.1 days,–,–,2,–,–,2 count,–
CC(N/N=C(\S)N(C)C)c1nccc2ccccc12 (stereo not given),2 count,–,6.2 days,–,–,–,–,–,–,–,–
C/C(=N\N=C(/S)N(C)C1CCCCC1)c1nccc2ccccc12,3 count,3 count,9.5 days,7.9 days,–,–,–,–,–,–,–
C/C(=N\N=C(/S)N1CC2CCC(CC2)C1)c1nccc2ccccc12,5 count,5 count,–,–,–,–,5,3 count,2 count,–,–
CC(N/N=C(\S)N1CC2CCC(CC2)C1)c1nccc2ccccc12 (stereo not given),5 count,4 count,9.7 days,–,–,–,3,1 count,–,–,–
CC(N/N=C(\S)N1CCN(c2ccccn2)CC1)c1nccc2ccccc12 (stereo not given),–,–,1.6 days,2.7 days,6.6 days,–,3,–,–,–,7.7 days
CC1CN(/C(S)=N/NC(C)c2nccc3ccccc23)CC(C)O1 (stereo not given),2 count,3 count,5.9 days,5.7 days,–,–,2,–,–,–,–
CC(N/N=C(\S)N1CCC(c2ccccc2)CC1)c1nccc2ccccc12 (stereo not given),2 count,1 count,1.6 days,1 days,–,–,4,–,–,–,–
C/C(=N\N=C(/S)N1CCC(C)CC1)c1nccc2ccccc12,2 count,–,1 days,–,–,–,–,1 count,–,–,–
C/C(=N\N=C(/S)N1CCC(c2ccccc2)CC1)c1nccc2ccccc12,1 count,1 count,2.7 days,5.7 days,–,–,4,–,–,–,–
C/C(=N\N=C(/S)N1CC(C)OC(C)C1)c1nccc2ccccc12 (stereo not given),3 count,3 count,3.5 days,8.6 days,–,–,1,–,–,–,–
